Data from ChEMBL document CHEMBL4680246, “Design, synthesis and biological evaluation of novel O-carbamoyl ferulamide derivatives as multi-target-directed ligands for the treatment of Alzheimer's disease” (Eur J Med Chem, 2020).
pIC50: −log10 of the molar value. Calls of active or inactive are those of the source. The rule behind the calls is not given here.

Key:
[1] = Toxicity in AlCl3-induced Zebrafish model of Alzheimer's disease assessed as mortality at 50 ug/ml relative to control; set-up: species or system Danio rerio; conditions: in vivo, at 50 µg/mL
HT-22 [2] = experiment: Effect on tau protein level in mouse HT22 cells transfected with pRK5-GFP-Tau P301L plasmid assessed as reduction in fluorescence intensity by fluorescence microscopy; format: functional, cell-based
Cholinesterase [3] = biological target: T1, Cholinesterase (Homo sapiens, UniProt P06276); experiment: Inhibition of human serum BuChE assessed as residual activity at IC50 using acetylcholine iodide as substrate measured by Ellman's method relative to control
T1 sequence (P06276 whole entry): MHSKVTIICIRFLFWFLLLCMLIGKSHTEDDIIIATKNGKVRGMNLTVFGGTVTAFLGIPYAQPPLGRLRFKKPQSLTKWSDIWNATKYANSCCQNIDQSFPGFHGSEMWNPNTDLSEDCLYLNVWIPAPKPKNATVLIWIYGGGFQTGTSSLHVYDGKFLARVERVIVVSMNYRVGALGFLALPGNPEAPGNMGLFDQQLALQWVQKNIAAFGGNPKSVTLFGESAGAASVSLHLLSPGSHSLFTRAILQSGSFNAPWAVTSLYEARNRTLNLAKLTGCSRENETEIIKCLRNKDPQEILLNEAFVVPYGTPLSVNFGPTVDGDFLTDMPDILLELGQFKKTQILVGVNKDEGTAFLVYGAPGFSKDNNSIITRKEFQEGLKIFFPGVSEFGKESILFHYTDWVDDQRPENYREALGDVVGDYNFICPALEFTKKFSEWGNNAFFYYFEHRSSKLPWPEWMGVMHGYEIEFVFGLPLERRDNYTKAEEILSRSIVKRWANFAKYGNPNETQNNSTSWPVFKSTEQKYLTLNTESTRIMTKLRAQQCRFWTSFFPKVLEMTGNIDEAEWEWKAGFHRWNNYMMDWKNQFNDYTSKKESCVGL

[4] = biological target: T2, Amine oxidase [flavin-containing] A (Homo sapiens, UniProt P21397); experiment: Inhibition of recombinant human MAO-A
T2 sequence (P21397 whole entry): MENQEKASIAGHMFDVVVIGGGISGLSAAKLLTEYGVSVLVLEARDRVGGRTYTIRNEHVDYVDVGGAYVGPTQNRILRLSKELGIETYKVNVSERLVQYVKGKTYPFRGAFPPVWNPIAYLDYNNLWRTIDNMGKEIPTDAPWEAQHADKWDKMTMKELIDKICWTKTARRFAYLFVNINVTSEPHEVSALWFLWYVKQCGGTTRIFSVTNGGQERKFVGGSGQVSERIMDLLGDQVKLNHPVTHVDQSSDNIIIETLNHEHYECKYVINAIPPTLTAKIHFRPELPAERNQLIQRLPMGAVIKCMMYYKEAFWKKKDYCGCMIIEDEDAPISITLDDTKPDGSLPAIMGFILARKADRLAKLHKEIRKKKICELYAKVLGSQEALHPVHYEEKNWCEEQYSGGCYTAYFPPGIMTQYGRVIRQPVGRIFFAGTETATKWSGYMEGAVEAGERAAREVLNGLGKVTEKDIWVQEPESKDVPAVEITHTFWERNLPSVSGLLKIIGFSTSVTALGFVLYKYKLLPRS

Homo sapiens [5] = species: Homo sapiens; experiment: Selectivity index, ratio of IC50 for recombinant human MAO-A to IC50 for recombinant human MAO-B
[6] = Toxicity in Zebrafish assessed as mortality at 50 ug/ml relative to control; set-up: species or system Danio rerio; conditions: in vivo, at 50 µg/mL
[7] = Effect on tau protein level in mouse HT22 cells transfected with pRK5-GFP-Tau P301L plasmid assessed as fluorescence intensity at 2.5 uM by fluorescence microscopy (reference value: 33.6); format: functional, HT-22
Danio rerio [8] = species: Danio rerio; experiment: Antialzheimer activity in AlCl3-induced Zebrafish model of Alzheimer's disease assessed as change in motility speed at […] (reference value: 1.08 mm/s); format: functional; conditions: dose 0.11 µg/ml
[9] = Effect on APP protein level in mouse HT22 cells transfected with pEGFP-N1-APP plasmid assessed as fluorescence intensity at 5 uM by fluorescence microscopy (reference value: 33.2); format: functional, HT-22
[10] = Toxicity in Zebrafish assessed as absence of blood flow at 6.25 ug/ml relative to control; set-up: species or system Danio rerio; conditions: at 6.25 µg/mL
[11] = Cytotoxicity against mouse HT22 cells assessed as cell viability at 20 uM by MTT assay relative to control; format: cell-based, HT-22; conditions: read-out: Activity
[12] = Toxicity in Zebrafish assessed as effect on kidney at 6.25 ug/ml relative to control; set-up: species or system Danio rerio; conditions: in vivo, at 6.25 µg/mL
Danio rerio [13] = species: Danio rerio; experiment: Protection against amyloid beta (1 to 42)-induced zebrafish model of vascular injury assessed as reduction in vascular injury at 0.33 ug/ml relative to control; format: functional; conditions: dose 0.33 µg/ml
HT-22 [14] = experiment: Down regulation of tau protein expression in mouse HT22 cells transfected with pRK5-GFP-Tau plasmid at 2.5 to 20 uM by Western blot analysis; format: functional, cell-based; conditions: dose 2.5-20 µM
Danio rerio [15] = species: Danio rerio; experiment: Antialzheimer activity in AlCl3-induced Zebrafish model of Alzheimer's disease assessed as change in motility speed at 1 ug/ml (reference value: 1.08 mm/s); format: functional; conditions: dose 1 µg/ml
[16] = Toxicity in Zebrafish assessed as death at 6.25 ug/ml relative to control; set-up: species or system Danio rerio; conditions: in vivo, at 6.25 µg/mL, read-out: Activity
[17] = Toxicity in Zebrafish assessed as induction of yolk sac absorption delay at 3.125 ug/ml relative to control; set-up: species or system Danio rerio; conditions: in vivo, at 3.125 µg/mL
[18] = biological target: Amyloid-beta precursor protein (Homo sapiens) (UniProt P05067); experiment: Inhibition of self-induced Amyloid beta (1 to 42 residues) (unknown origin) aggregation at 25 uM measured after 24 hrs by thioflavin T-based fluorimetric assay relative to control
Amyloid-beta precursor protein (Homo sapiens), sequence (P05067 whole entry, the tested form may be a part): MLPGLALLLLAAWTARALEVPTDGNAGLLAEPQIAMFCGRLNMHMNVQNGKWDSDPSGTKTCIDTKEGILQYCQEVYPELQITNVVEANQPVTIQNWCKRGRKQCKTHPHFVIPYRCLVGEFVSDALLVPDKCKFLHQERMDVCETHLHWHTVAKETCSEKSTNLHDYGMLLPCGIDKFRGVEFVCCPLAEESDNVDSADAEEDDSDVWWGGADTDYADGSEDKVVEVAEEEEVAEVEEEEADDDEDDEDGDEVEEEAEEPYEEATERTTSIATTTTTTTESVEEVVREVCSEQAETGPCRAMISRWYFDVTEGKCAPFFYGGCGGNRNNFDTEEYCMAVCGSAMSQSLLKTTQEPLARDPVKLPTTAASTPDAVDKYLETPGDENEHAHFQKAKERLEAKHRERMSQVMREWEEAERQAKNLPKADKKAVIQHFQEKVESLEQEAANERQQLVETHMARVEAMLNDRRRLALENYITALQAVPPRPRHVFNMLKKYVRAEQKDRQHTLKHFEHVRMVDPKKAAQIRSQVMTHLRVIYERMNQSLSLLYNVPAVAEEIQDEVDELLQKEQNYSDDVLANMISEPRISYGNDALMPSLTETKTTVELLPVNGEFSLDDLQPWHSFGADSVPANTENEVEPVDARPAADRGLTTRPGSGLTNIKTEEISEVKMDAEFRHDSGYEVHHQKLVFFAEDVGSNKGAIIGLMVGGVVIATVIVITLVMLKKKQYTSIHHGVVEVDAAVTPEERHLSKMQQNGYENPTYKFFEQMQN

[19] = Effect on tau protein level in mouse HT22 cells transfected with pRK5-GFP-Tau P301L plasmid assessed as fluorescence intensity at 10 uM by fluorescence microscopy (reference value: 33.6); format: functional, HT-22
Mus musculus = experiment: Improvement in cognitive impairment in scopolamine-induced mouse model of amnesia assessed as increase in spontaneous alteration at 5 to 10 mg/kg by Y-maze test; format: functional, organism-based; conditions: dose 5-10 mg/kg
Homo sapiens [20] = species: Homo sapiens; experiment: Selectivity index, ratio of IC50 for human erythrocytes Ache to IC50 for human serum BuChe
[21] = Toxicity in Zebrafish assessed as induction of kidney edema at 6.25 ug/ml relative to control; set-up: species or system Danio rerio; conditions: in vivo, at 6.25 µg/mL
SH-SY5Y = experiment: Neuroprotective activity against amyloid beta (1 to 42)-induced cytotoxicity in human SH-SY5Y cells assessed as cell viability at 1 uM by MTT assay (reference value: 50.3%); format: functional; conditions: read-out: Activity
[22] = Toxicity in Zebrafish assessed as change in body shape at 6.25 ug/ml relative to control; set-up: species or system Danio rerio; conditions: in vivo, at 6.25 µg/mL
Danio rerio [23] = species: Danio rerio; experiment: Protection against amyloid beta (1 to 42)-induced zebrafish model of vascular injury assessed as vascular injury rate at 1 ug/ml (reference value: 73.3%); format: functional; conditions: dose 1 µg/ml
[24] = biological target: Amyloid-beta precursor protein (Homo sapiens) (UniProt P05067); experiment: Disaggregation of self-induced amyloid beta (1 to 42) (unknown origin) preformed fibrils at 25 uM measured after 24 hrs by transmission electron microscopic analysis
Danio rerio [25] = species: Danio rerio; experiment: Antialzheimer activity in AlCl3-induced Zebrafish model of Alzheimer's disease assessed as increase in motility distance at […] relative to control; format: functional; conditions: dose 0.11 µg/ml
Cholinesterase [26] = biological target: T1, Cholinesterase; experiment: Inhibition of human serum BuChE assessed as residual activity at 0.1 times IC50 using acetylcholine iodide as substrate measured after dilution by Ellman's method relative to control
[27] = Toxicity in AlCl3-induced Zebrafish model of Alzheimer's disease; set-up: species or system Danio rerio; conditions: in vivo
Danio rerio [28] = species: Danio rerio; experiment: Antialzheimer activity in AlCl3-induced Zebrafish model of Alzheimer's disease assessed as motility distance at 1 ug/ml (reference value: 5346 mm); format: functional; conditions: dose 1 µg/ml
[29] = Effect on APP protein level in mouse HT22 cells transfected with pEGFP-N1-APP plasmid assessed as fluorescence intensity at 10 uM by fluorescence microscopy (reference value: 33.2); format: functional, HT-22
[30] = Acute toxicity in Kunming mouse assessed as mortality at 50 to 1000 mg/kg; format: organism-based; conditions: in vivo, dose 50-1000 mg/kg
Danio rerio [31] = species: Danio rerio; experiment: Antialzheimer activity in AlCl3-induced Zebrafish model of Alzheimer's disease assessed as increase in motility speed at 0.33 ug/ml relative to control; format: functional; conditions: dose 0.33 µg/ml
[32] = Toxicity in Zebrafish assessed as degenerating muscle within the somites at 6.25 ug/ml relative to control; set-up: species or system Danio rerio; conditions: in vivo, at 6.25 µg/mL

Compound: CCN(C)C(=O)Oc1ccc(/C=C/C(=O)N2CCc3ccccc3C2)cc1OC
- mortality at 50 ug/ml [1]: 100%
- Activity (HT-22 [2]): Dose-dependent effect
- Activity (Cholinesterase [3]): 53.2%
- pIC50 [4]: 4.80
- Ratio IC50 (Homo sapiens [5]): 3
- mortality at 50 ug/ml [6]: 100%
- Flu intensity [7]: 30.3
- Activity (Danio rerio [8]): 1.79 millimeter/sec
- Flu intensity [9]: 13.6
- Activity [10]: 16.7%
- viability at 20 µM [11]: 79.8%
- Activity [12]: 23.3%
- Efficacy (Danio rerio [13]): 9%
- Activity (HT-22 [14]): Active
- Activity (Danio rerio [15]): 2.15 millimeter/sec
- mortality at 6.25 ug/ml [16]: 13.3%
- Activity [17]: 40%
- inhibition [18]: 58.2%
- Flu intensity [19]: 18.7
- Activity (Mus musculus): Active
- Ratio IC50 (Homo sapiens [20]): 10.9
- Activity [21]: 33.3%
- viability at 1 µM (SH-SY5Y): 68.1%
- Activity [22]: 53.3%
- Activity (Danio rerio [23]): 53.3%
- Activity [24]: Active
- Efficacy (Danio rerio [25]): 54.9%
- Activity (Cholinesterase [26]): 47.1%
- MTD [27]: 1 µg/mL
- Activity (Danio rerio [28]): 7024 mm
- Flu intensity [29]: 13.3
- Activity [30]: Non-Toxic
- Efficacy (Danio rerio [31]): 79%
- Activity [32]: 36.7%
